Assay results from patent US9376387B2 (priority 2013, dated 2016).

Assays:
EqBuChE = EqBuChE (Equus caballus, UniProt P81908); assay: biochemical; conditions: EqBuChE IC50
[1] = target: T1, hAChE (human erythrocyte membranes as a AChE source) (Homo sapiens, UniProt P22303); assay: acetylcholinesterase (AChE) activity, modified Ellman method; type: biochemical; conditions: hAChE IC50, modified Ellman method, acetylthiocholine iodide substrate, pH=7.4
T1 construct: human erythrocyte membranes as a AChE source; from tissue; host or cells: human erythrocyte membranes
T1 sequence (P22303 32-617 isoform P22303-2 limits assumed): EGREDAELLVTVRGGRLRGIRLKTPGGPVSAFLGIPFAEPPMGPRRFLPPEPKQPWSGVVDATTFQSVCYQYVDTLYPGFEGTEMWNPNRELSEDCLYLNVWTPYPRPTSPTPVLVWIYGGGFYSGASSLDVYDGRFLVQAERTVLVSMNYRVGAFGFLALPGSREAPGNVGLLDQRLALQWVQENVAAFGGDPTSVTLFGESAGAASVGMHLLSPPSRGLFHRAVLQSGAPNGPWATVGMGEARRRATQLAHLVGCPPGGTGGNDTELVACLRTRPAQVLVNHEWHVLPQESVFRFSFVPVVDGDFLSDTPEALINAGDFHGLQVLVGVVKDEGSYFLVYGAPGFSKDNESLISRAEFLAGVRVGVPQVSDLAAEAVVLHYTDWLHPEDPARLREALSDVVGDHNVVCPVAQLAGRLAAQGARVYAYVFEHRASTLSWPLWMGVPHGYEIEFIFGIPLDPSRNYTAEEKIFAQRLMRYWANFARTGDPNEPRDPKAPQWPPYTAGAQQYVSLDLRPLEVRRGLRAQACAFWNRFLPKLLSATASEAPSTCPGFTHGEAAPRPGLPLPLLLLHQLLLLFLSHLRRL

Chain of EqBuChE (P81908 whole entry): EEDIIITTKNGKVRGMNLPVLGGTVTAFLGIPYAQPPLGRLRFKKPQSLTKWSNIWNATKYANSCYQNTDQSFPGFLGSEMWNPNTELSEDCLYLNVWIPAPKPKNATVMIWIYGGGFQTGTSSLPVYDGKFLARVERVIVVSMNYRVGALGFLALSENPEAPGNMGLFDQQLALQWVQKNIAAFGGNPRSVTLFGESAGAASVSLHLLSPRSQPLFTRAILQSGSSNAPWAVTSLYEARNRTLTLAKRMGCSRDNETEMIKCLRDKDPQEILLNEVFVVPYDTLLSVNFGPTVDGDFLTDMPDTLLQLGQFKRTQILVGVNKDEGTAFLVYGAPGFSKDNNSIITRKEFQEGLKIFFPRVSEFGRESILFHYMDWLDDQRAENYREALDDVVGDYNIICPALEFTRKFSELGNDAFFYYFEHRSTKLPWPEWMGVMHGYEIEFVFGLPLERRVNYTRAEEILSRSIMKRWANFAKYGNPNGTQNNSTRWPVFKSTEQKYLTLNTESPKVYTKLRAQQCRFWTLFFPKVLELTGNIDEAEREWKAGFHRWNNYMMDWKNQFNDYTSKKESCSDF

SMILES	IC50 (EqBuChE)	IC50 [1]
COc1ccc2c(c1)CCC(Cc1cc[n+](Cc3cccc(C)c3)cc1Br)C2=O (centres unmarked) [Compound 118, 2-[[3-bromo-1-(m-tolylmethyl)pyridin-1-ium-4-yl]methyl]-6-methoxy-tetralin-1-one bromide]	664 nM	16.5 nM
CC(=O)c1c[n+](Cc2ccccc2C)ccc1CC1Cc2cc3c(cc2C1=O)OCO3 (centres unmarked) [Compound 139, 6-[[3-acetyl-1-(o-tolylmethyl)pyridin-1-ium-4-yl]methyl]-5,6-dihydrocyclopenta[f][1,3]benzodioxol-7-one bromide]	1620 nM	60 nM
COc1ccc2c(c1)CCC(Cc1cc[n+](Cc3ccc(C)cc3)cc1C(C)=O)C2=O (centres unmarked) [Compound 130, 2-[[3-acetyl-1-(p-tolylmethyl)pyridin-1-ium-4-yl]methyl]-6-methoxy-tetralin-1-one bromide]	4140 nM	556 nM
CC(=O)C1=CN(Cc2ccccc2C)C=CC1CC1Cc2cc(C)c(C)cc2C1=O (centres unmarked) [Compound 166, 2-[[3-acetyl-1-(o-tolylmethyl)-4H-pyridin-4-yl]methyl]-5,6-dimethyl-indan-1-one]	1260 nM	653 nM
COc1cc2c(cc1OC)C(=O)C(Cc1cc[n+](Cc3cccc(Cl)c3)cc1C(C)=O)C2 (centres unmarked) [Compound 144, 2-[[3-acetyl-1-[(3-chlorophenyl)methyl]pyridin-1-ium-4-yl]methyl]-5,6-dimethoxy-indan-1-one bromide]	3340 nM	3.2 nM
COc1cc2c(cc1OC)C(=O)C(Cc1cc[n+](Cc3ccccc3C)cc1Br)C2 (centres unmarked) [Compound 141, 2-[[3-bromo-1-(o-tolylmethyl)pyridin-1-ium-4-yl]methyl]-5,6-dimethoxy-indan-1-one bromide]	2290 nM	0.053 nM
COc1cc2c(cc1OC)C(=O)C(CC1C=CN(Cc3cccc(Cl)c3)C=C1C(C)=O)C2 (centres unmarked) [Compound 77, 2-[[3-acetyl-1-[(3-chlorophenyl)methyl]-4H-pyridin-4-yl]methyl]-5,6-dimethoxy-indan-1-one]	13500 nM	543 nM
COc1cc2c(cc1OC)C(=O)C(Cc1cc[n+](Cc3ccccc3)cc1F)CC2 (centres unmarked) [Compound 133, 2[(1-benzyl-3-fluoro-pyridin-1-ium-4-yl)methyl]-6,7-dimethoxy-tetralin-1-one bromide]	508 nM	9.1 nM
COc1ccc2c(c1)CCC(Cc1cc[n+](Cc3cccc(C(F)(F)F)c3)cc1C(C)=O)C2=O (centres unmarked) [Compound 124, 2-[[3-acetyl-1-[[3-(trifluoromethyl)phenyl]methyl]pyridin-1-ium-4-yl]methyl]-6-methoxy-tetralin-1-one bromide]	2170 nM	308 nM
COc1ccc2c(c1)CCC(Cc1cc[n+](Cc3ccc(F)cc3)cc1C(C)=O)C2=O (centres unmarked) [Compound 129, 2-[[3-acetyl-1-[(4-fluorophenyl)methyl]pyridin-1-ium-4-yl]methyl]-6-methoxy-tetralin-1-one bromide]	171 nM	141 nM
COc1ccc2c(c1)CCC(Cc1cc[n+](Cc3ccc(Cl)cc3)cc1C(C)=O)C2=O (centres unmarked) [Compound 131, 2-[[3-acetyl-1-[(4-chlorophenyl)methyl]pyridin-1-ium-4-yl]methyl]-6-methoxy-tetralin-1-one bromide]	6090 nM	568 nM
COc1ccc2c(c1)CCC(Cc1cc[n+](Cc3cccc(C)c3)cc1C(C)=O)C2=O (centres unmarked) [Compound 120, 2-[[3-acetyl-1-(m-tolylmethyl)pyridin-1-ium-4-yl]methyl]-6-methoxy-tetralin-1-one bromide]	596 nM	110 nM
COc1cc2c(cc1OC)C(=O)C(Cc1cc[n+](Cc3ccccc3Cl)cc1Br)C2 (centres unmarked) [Compound 140, 2-[[3-bromo-1-[(2-chlorophenyl)methyl]pyridin-1-ium-4-yl]methyl]-5,6-dimethoxy-indan-1-one bromide]	984 nM	0.255 nM
COc1cc2c(cc1OC)C(=O)C(CC1C=CN(Cc3ccccc3)C=C1C(C)=O)CC2 (centres unmarked) [Compound 162, 2-[(3-acetyl-1-benzyl-4H-pyridin-4-yl)methyl]-6,7-dimethoxy-tetralin-1-one]	3970 nM	415 nM
COc1ccc2c(c1)CCC(Cc1cc[n+](Cc3ccccc3Cl)cc1C(C)=O)C2=O (centres unmarked) [Compound 126, 2-[[3-acetyl-1-[(2-chlorophenyl)methyl]pyridin-1-ium-4-yl]methyl]-6-methoxy-tetralin-1-one bromide]	256 nM	29 nM
COc1ccc2c(c1)CCC(Cc1cc[n+](Cc3cccc([N+](=O)[O-])c3)cc1C(C)=O)C2=O (centres unmarked) [Compound 123, 2-[[3-acetyl-1-[(3-nitrophenyl)methyl]pyridin-1-ium-4-yl]methyl]-6-methoxy-tetralin-1-one bromide]	1320 nM	78.6 nM
COc1ccc2c(c1)CCC(Cc1cc[n+](Cc3ccccc3[N+](=O)[O-])cc1C(C)=O)C2=O (centres unmarked) [Compound 125, 2-[[3-acetyl-1-[(2-nitrophenyl)methyl]pyridin-1-ium-4-yl]methyl]-6-methoxy-tetralin-1-one bromide]	592 nM	57.7 nM
COc1ccc2c(c1)CC(Cc1cc[n+](Cc3ccccc3C)cc1C(C)=O)C2=O (centres unmarked) [Compound 138, 2-[[3-acetyl-1-(o-tolylmethyl)pyridin-1-ium-4-yl]methyl]-5-methoxy-indan-1-one bromide]	2990 nM	30 nM
COc1ccc2c(c1)CCC(Cc1cc[n+](Cc3ccccc3F)cc1C(C)=O)C2=O (centres unmarked) [Compound 127, 2-[[3-acetyl-1-[(2-fluorophenyl)methyl]pyridin-1-ium-4-yl]methyl]-6-methoxy-tetralin-1-one bromide]	489 nM	43 nM
COc1ccc2c(c1)CCC(Cc1cc[n+](Cc3ccccc3)cc1Br)C2=O (centres unmarked) [Compound 117, 2-[(1-benzyl-3-bromo-pyridin-1-ium-4-yl)methyl]-6-methoxy-tetralin-1-one bromide]	447 nM	20 nM
CC(=O)c1c[n+](Cc2ccccc2C)ccc1CC1Cc2cc(C)c(C)cc2C1=O (centres unmarked) [Compound 152, 2-[[3-acetyl-1-(o-tolylmethyl)pyridin-1-ium-4-yl]methyl]-5,6-dimethyl-indan-1-one bromide]	262 nM	37.7 nM
COc1ccc2c(c1)CCC(Cc1cc[n+](Cc3ccccc3)cc1C(C)=O)C2=O (centres unmarked) [Compound 82, 2-[(3-acetyl-1-benzyl-pyridin-1-ium-4-yl)methyl]-6-methoxy-tetralin-1-one chloride]	371 nM	76 nM
COc1cc2c(cc1OC)C(=O)C(Cc1cc[n+](Cc3cccc(C)c3)cc1Br)C2 (centres unmarked) [Compound 146, 2-[[3-bromo-1-(m-tolylmethyl)pyridin-1-ium-4-yl]methyl]-5,6-dimethoxy-indan-1-one bromide]	3860 nM	0.465 nM
COc1ccc2c(c1)CCC(Cc1cc[n+](Cc3cccc(Cl)c3)cc1C(C)=O)C2=O (centres unmarked) [Compound 122, 2-[[3-acetyl-1-[(3-chlorophenyl)methyl]pyridin-1-ium-4-yl]methyl]-6-methoxy-tetralin-1-one bromide]	496 nM	71 nM
COc1ccc2c(c1)CCC(Cc1cc[n+](Cc3ccccc3)cc1C(C)=O)C2=O (centres unmarked) [Compound 119, 2-[(3-acetyl-1-benzyl-pyridin-1-ium-4-yl)methyl]-6-methoxy-tetralin-1-one bromide]	412 nM	71 nM
